Values quoted from earlier work, collected in US12350135B2, “Absorbent article with odor control composition” (The Procter & Gamble Company, priority 2021, dated 2025).
Counter-ions that a name gives are not always drawn.

Conditions: for water solubility: in water

Row | Compound | water solubility | solubility in water (in words)
1 | CC1(C)C(=O)N(CO)C(=O)N1CO [DMDM hydantoin, 1,3-bis(hydroxymethyl)-5,5-dimethyI-2,4-imidazolidinedione] | more than 50% | 
2 | [H]/N=C(\N/C(=N/[H])NCCCCCCNC(=N)NC(=N)Nc1ccc(Cl)cc1)Nc1ccc(Cl)cc1 [chlorhexidine digluconate salt, 1,1′-hexamethylene bis(5-(p-chlorophenyl)biguanide), reference compound] | about 70% | 
3 | [Na+].[O-][n+]1ccccc1[S-] [sodium pyrithione] | about 50% | 
4 | OCc1ccccc1 [benzyl alcohol] | about 4% | 
5 | [H]/N=C(\N/C(=N/[H])NCCCCCCNC(=N)NC(=N)Nc1ccc(Cl)cc1)Nc1ccc(Cl)cc1 [chlorhexidine diacetate salt, 1,1′-hexamethylene bis(5-(p-chlorophenyl)biguanide), reference compound] | about 1.8% | 
6 | O=[N+]([O-])C1(Br)COCOC1 [Bronidox L, 5-bromo-5-nitro-1,3-dioxane] | about 0.46% | 
7 | OCCc1ccccc1 [2-phenylethanol] | about 2% | 
8 | CC(C)(O)C(Cl)(Cl)Cl [chlorobutanol, 1,1,1,-Trichloro-2-methylpropan-2-ol] | about 0.8% | 
9 | ClC=CC[N+]12CN3CN(CN(C3)C1)C2.[Cl-] [Dowicil 200, 1-(3-Chlorallyl)-3,5,7-triaza-1-azoniaadamantane chloride] |  | freely soluble in water
10 | OCCOc1ccccc1 [2-phenoxyethanol] | about 2.67% | 
